According to US7247649B2, “Oxazoles, their manufacture and use as pharmaceutical agents” (Hoffmann-La Roche Inc., priority 2003, dated 2007):
pIC50: −log10 of the molar value.

Assays:
[1] = system: A549 cells (human lung carcinoma cell line); experiment: A549 MTT cell proliferation assay (HER-signalling pathway inhibitors); format: cell-based; conditions: for pIC50: Homo sapiens, A549 cells, 5 days (120 h) incubation, MTT readout at 550 nm, 3 μM to 0.15 nM; for activity (in words): reference compound in the A549 biological assay
Experimental: A549 cells (human lung carcinoma cell line) were cultivated in RPMI 1640, 2.5% FCS, 2 mM Glutamine, 100 u/ml Penicillin, 100 μg/ml Streptomycin. For the assay the cells were seeded in 384 well plates, 900 cells per well, in the same medium. The next day compounds (dissolved 10 mM in DMSO) were added in various concentrations ranging from 3 μM to 0.15 nM (10 concentrations, 1:3 diluted). After 5 days the MTT assay was done mainly according to the instructions of the manufacturer (Cell proliferation kit I, MTT, from Roche Molecular Biochemicals). In brief: MTT labeling reagent was added to a final concentration of 0.5 mg/ml, added and incubated for 4 hrs at 37 C, 5% CO2. During this incubation time purple formazan crystals are formed. After addition of the solubilization solution (20% SDS in 0.02 M HCl) the plates were incubated overnight at 37° C., 5% CO2. After careful mixing plates were measured in Victor 2 (scanning multiwell spectrophotometer, Wallac) at 550 nm.
A decrease in number of living cells results in a decrease in the total metabolic activity in the sample. The decrease directly correlates to the amount of purple color resulting from the solubilization of the purple formazan crystals.
A549: 900 cells in 60 μl per well of 384 well plate (Greiner)
Medium: RPMI 1640, 2.5% FCS, glutamine, pen/strep.
Induction: • Dilution of compound in DMSO: 3 μl 10 mM+27 μl DMSO, dilute 1:3 • Add 2 μl of compound dilution row to 95 ul of medium • Add 10 μl of compound dilution to 60 μl medium in test plate→0.3% DMSO per well • Incubate 120 h (5 days) at 37° C., 5% CO2
Analysis: • Add 7 μl MTT (5 mg 7 ml/well), incubate 4 h at 37° C. • Add 30 μl lysis buffer (20% SDS, 0.04 N HCl) per well • Incubate overnight at 37° C.
Measurement: • Victor 2, 550 nm • Determination of IC50 was done using XL-fit.

SMILES	pIC50 [1]	melting point [°C]	activity (in words) [1]
Fc1cc(/C=C/c2nc(COc3ccc(CCCCn4ccnn4)cc3)co2)ccc1Cl [Example 1, 1-[4-(4-{2-[2-(E)-(4-Chloro-3-fluoro-phenyl)-vinyl]-oxazol-4-ylmethoxy}-phenyl)-butyl]1H-[1,2,3]triazole]	6.34	146 to 149	do not have reasonable activity
Fc1cc(C(F)(F)F)ccc1/C=C/c1nc(COc2ccc(CCCCn3ccnn3)cc2)co1 [Example 3, 1-[4-(4-{2-[2-(E)-(2-Fluoro-4-trifluoromethyl-phenyl)-vinyl]-oxazol-4-ylmethoxy}-phenyl)-butyl]-1H-[1,2,3]triazole]	8.70		
Fc1cc(Cl)ccc1/C=C/c1nc(COc2ccc(CCCCn3ccnn3)cc2)co1 [Example 2, 1-[4-(4-{2-[2-(E)-(4-Chloro-2-fluoro-phenyl)-vinyl]-oxazol-4-ylmethoxy}-phenyl)-butyl]-1H-[1,2,3]triazole]	> 8.30		
FC(F)(F)c1cccc(/C=C/c2nc(COc3ccc(CCCCn4ccnn4)cc3)co2)c1 [Example 4, 1-[4(4-{2-[2-(E)-(3-Trifluoromethyl-phenyl)-vinyl]-oxazol-4-ylmethoxy}-phenyl)-butyl]-1H-[1,2,3]triazole]	5.45		inactive

Further lines, with some results ahead:

pIC50 [1]	melting point [°C]	SMILES	activity (in words) [1]
6.05		Clc1ccc(/C=C/c2nc(COc3ccc(CCCCn4ccnn4)cc3)co2)cc1Cl [Example 5, 1-[4-(4-{2-[2-(E)-(3,4-Dichloro-phenyl)-vinyl]-oxazol-4-ylmethoxy}-phenyl)-butyl]-1H-[1,2,3]triazole]	do not have reasonable activity
8.15		FC(F)(F)c1ccc(C=Cc2nc(COc3ccc(CCCCn4ccnn4)cc3)co2)cc1 [reference, 1-[4-(4-{2-[2-(4-trifluoromethyl-phenyl)-vinyl]-oxazol-4-ylmethoxy}-phenyl)-butyl]-1H-[1,2,3]triazole, reference compound]	less activity than the compounds of the present invention
